This assay has as its target Nuclear receptor ROR-alpha (Homo sapiens) (UniProt P35398). As to the kind of experiment: RORA-driven reporter inhibition potency – cell-based, dose response (AID 610).

In PubChem BioAssay AID610 (The Scripps Research Institute Molecular Screening Center, 2007) one finds IC50 data, which are given here for 9 compounds.

By IC50 is commonly meant the concentration that inhibits the measured activity by half.

Calls of active or inactive are those of the source. No rule for the calls is given here. A value given as a limit tells only on which side of the number the result lay.

Chain of Nuclear receptor ROR-alpha (Homo sapiens) (P35398 whole entry, looked up): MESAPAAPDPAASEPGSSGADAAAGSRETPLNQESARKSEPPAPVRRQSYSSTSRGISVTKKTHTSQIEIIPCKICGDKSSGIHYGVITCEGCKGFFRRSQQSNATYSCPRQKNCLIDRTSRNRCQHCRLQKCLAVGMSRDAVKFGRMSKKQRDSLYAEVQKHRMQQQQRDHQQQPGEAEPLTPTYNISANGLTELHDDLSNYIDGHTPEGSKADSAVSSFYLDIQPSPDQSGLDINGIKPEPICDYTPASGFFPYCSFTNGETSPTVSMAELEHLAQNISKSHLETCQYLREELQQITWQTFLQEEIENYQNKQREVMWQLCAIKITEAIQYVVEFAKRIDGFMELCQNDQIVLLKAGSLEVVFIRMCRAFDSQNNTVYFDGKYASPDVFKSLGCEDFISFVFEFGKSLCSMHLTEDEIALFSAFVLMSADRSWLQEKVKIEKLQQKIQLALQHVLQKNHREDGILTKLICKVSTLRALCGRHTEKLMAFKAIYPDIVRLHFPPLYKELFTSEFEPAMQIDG

Regarding `CC(=O)CC1OC(=O)C(Br)=C1NCc1ccccc1` (centres undefined), the IC50 result was “inactive”.

Regarding `O=C(/C=C\Nc1ccc2c(c1)OCO2)c1ccccn1`, the half-inhibitory concentration (IC50) is 1.52 µM.

Regarding `O=C(/C=C\Nc1ccccn1)c1ccc(Cl)cc1`, the IC50 was 8.35 µM.

For `Cc1ccc(C(=O)/C=C/Nc2ccccn2)cc1`, the IC50 is 2.09 µM.

Turning to `COc1cc(/C=N/O)ccc1OCc1ccc(C(=O)O)cc1`, the IC50 was 0.67 µM.

`COC(=O)C1=C(CN2CCCc3ccccc32)NC(=O)NC1c1ccc(F)cc1` (centres undefined): the IC50 is 6.23 µM.

As to `O=S(=O)(c1ccc2c(c1)C(=NO)c1cc(S(=O)(=O)N3CCCCC3)ccc1-2)N1CCCCC1`, the IC50 is 2.48 µM.

For `COc1cccc2sc(Nc3nc(-c4ccccn4)cs3)nc12`, the IC50 is 4.57 µM.

As to `O=C(O)CCCCCN1C(=O)CSC1=S`, the IC50 was > 99 µM (inactive).
